The values that follow are results of earlier work, collected in patent US12440441B2 (LIQMEDS WORLDWIDE LIMITED, priority 2021, dated 2025).

Molecules are shown by their SMILES.

Series [1] deals with calcium channel. The note with it: Stopher.

On to `CCOC(=O)C1=C(COCCN)NC(C)=C(C(=O)OC)C1c1ccccc1Cl` (stereo not drawn) [Amlodipine besylate, amlodipine besylate], for which, where the note is “ethanol”, the solubility in ethanol result is “sparingly soluble”. Further, the solubility in water result (water) is given as “slightly soluble”.

As to `CCOC(=O)c1c(COCCN)nc(C)c(C(=O)OC)c1-c1ccccc1Cl` [Impurity A, Amlodipine Related Substance A], in series [1], the “calcium antagonist activity relative to amlodipine” value is “does not show any significant calcium antagonist activity”.
